Data as given in patent publication US12606834B2 (priority 2015, dated 2026).

Test system: E. coli R182
Format: cell-based, Escherichia coli
Excerpt: We compared the combination of P1 CRISPR phage (targeting ftsA) and ciprofloxacin to the use of P1 CRISPR phage alone for killing E. coli R182, a ciprofloxacin-resistant strain (FIG. 10A). Ciprofloxacin (Cip) dose was the highest therapeutically relevant concentration (4 micrograms per milliliter) to which the R182 strain is known to be resistant. E. coli were infected with CRISPR phage targeting the E. coli ftsA gene at a range of multiplicities of infection (MOI).
In addition, the combination of P1 CRISPR phage (targeting ftsA) and imipenem, a standard of care antibiotic in E. coli infections, was compared with P1 CRISPR phage alone for killing E. coli R182, a ciprofloxacin-resistant strain (FIG. 10B). […] The E. coli cells were infected with CRISPR phage at a range of MOI.
Finally, we compared the loss of viable E. coli R182 cells following exposure to imipinem, P1 CRISPR phage targeting ftsA, or a combination of both (FIG. 10C). For relevant conditions (n=3 for each condition), imipenem was held at a constant dose (LD50 for E. coli R182) and CRISPR phage was held to a MOI of 2.

Row | Compound | CFU reduction (constant dose (the LD50 for E. coli R182), FIG. 10B) | bacterial viability (ciprofloxacin alone, 4 micrograms per milliliter, FIG. 10A)
1 | C[C@@H](O)[C@H]1C(=O)N2C(C(=O)O)=C(SCCN=CN)C[C@H]12 [Imipenem, imipenem] | 0.3 log | –
2 | O=C(O)c1cn(C2CC2)c2cc(N3CCNCC3)c(F)cc2c1=O [ciprofloxacin] | – | did not reduce bacterial viability
